Experimental data from PMC1065314, “A2B adenosine receptor activity is reduced in neutrophils from patients with systemic sclerosis” (Arthritis Research & Therapy, 2004).

Biological target: T1, A2B adenosine receptor (Homo sapiens, UniProt P29275)
T1 construct: Aliquots of neutrophil membranes (0.2–0.4 mg proteins) were incubated in a final volume of 250 μl T2 buffer; from tissue; host or cells: neutrophils from healthy volunteers and systemic sclerosis patients (membranes)
T1 sequence (P29275 1-332): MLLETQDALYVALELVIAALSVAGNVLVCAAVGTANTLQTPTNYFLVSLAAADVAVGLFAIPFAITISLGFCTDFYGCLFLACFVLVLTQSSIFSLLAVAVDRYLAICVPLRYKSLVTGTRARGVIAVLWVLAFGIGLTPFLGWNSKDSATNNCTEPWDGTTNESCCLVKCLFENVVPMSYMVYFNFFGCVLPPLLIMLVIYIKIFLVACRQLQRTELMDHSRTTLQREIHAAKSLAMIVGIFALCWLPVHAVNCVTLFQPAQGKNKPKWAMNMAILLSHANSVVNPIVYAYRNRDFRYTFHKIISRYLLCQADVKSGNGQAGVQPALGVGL
Assay: [3H]NECA binding to A2B AR in neutrophil membranes (plus CPA and SCH58261)
Conditions: read-out: [^3H]NECA Ki; control neutrophil membranes; competition with 20 nmol/l [3H]NECA plus 50 nmol/l CPA and 100 nmol/l SCH58261; mean ± SEM of three experiments; Cheng and Prusoff
Experimental: For membrane preparation, cells were washed twice with 10 mmol/l Tris-HCl buffer, pH 7.4, containing 10 mmol/l MgCl2, in the presence of protease inhibitors (200 μg/ml bacitracine, 160 μg/ml benzamidine, 20 μg/ml trypsin inhibitor [T1]) and centrifuged at 48,000 g for 15 min at 4°C. Pellets were diluted in 20 volumes of T1 buffer, treated with ADA (2 IU/ml) for 60 min at 37°C to remove endogenous adenosine, and washed twice with 50 mmol/l Tris-HCl buffer, pH 7.4, containing 10 mmol/l MgCl2 (T2).
Aliquots of neutrophil membranes (0.2–0.4 mg proteins) were incubated in a final volume of 250 μl T2 buffer. […] After 90 min incubation at 0°C, the reaction was terminated either by vacuum filtration through Whatman GF/C glass fibre filters, accompanied by three washes with ice-cold T2 buffer (4 ml), or by centrifugation at 2900 g for 15 min at 4°C. A2B AR specificity was evaluated through competition experiments, using different AR ligands.

## Nc1nc(Cl)nc2c1ncn2[C@@H]1O[C@H](CO)[C@@H](O)[C@H]1O [2 Cl-adenosine]
  Ki: 954 ± 600 nM

## O=C(Cc1ccccc1)Nc1nc2ccc(Cl)cc2c2nc(-c3ccco3)nn12 [MRS1220]
  Ki: > 10000 nM

## CCCn1c(=O)c2[nH]c(-c3ccc(OCC(=O)Nc4ccc(C(C)=O)cc4)cc3)nc2n(CCC)c1=O [MRS1706]
  Ki: 5 ± 0.3 nM
